Results taken from PubChem BioAssay AID238 (DTP/NCI, 2004).
Several values for one entry are separate records, joined by “and”; a condition that tells them apart may be missing. Equal values may be shown once. Toxic doses and inconclusive results are not listed.

System: CAF1 mice, leiomyosarcoma No.2 ip, survival T/C%
Experiment: NCI In Vivo Anticancer Drug Screen. Data for tumor model Leiomyosarcoma (No. 2) (intraperitoneal) in CAF1 mice
Conditions: endpoint: mean survival time, schedule: Q01DX010 (ip), vehicle: saline, higher = longer survival
Experimental: The antitumor activity of compounds was measured in mice bearing transplantable tumors. Survival or tumor size were measured and the results are expressed as the measurement made in the treated group (T) divided by the measurement made in the vehicle treated control group (C). The tumor model used in this assay is Leiomyosarcoma (No. 2) (intraperitoneal) in CAF1 mice

In the case of `CC(CCC(C)OS(C)(=O)=O)OS(C)(=O)=O` (stereo unspecified), the T/C (dose: 2.0 mg/kg/injection) is reported as 104 % of control, the T/C (dose: 4.0 mg/kg/injection) is reported as 100 % of control and the T/C (dose: 8.0 mg/kg/injection) is reported as 103 % of control and 104 % of control. For the same compound, the T/C (dose: 16.0 mg/kg/injection) was 117 % of control.
With `O=C(Nc1ccc(NC2=NCCN2)cc1)c1ccc(C(=O)Nc2ccc(NC3=NCCN3)cc2)cc1` the T/C (dose: 2.0 mg/kg/injection) was 103 % of control and 123 % of control, the T/C (dose: 8.0 mg/kg/injection) was 123 % of control and the T/C (dose: 16.0 mg/kg/injection) was 107 % of control.
In the case of `O=C(O)c1[nH]c(=O)[nH]c(=O)c1F`, the T/C (dose: 1.25 mg/kg/injection) is reported as 112 % of control, the T/C (dose: 2.5 mg/kg/injection) is reported as 112 % of control and the T/C (dose: 5.0 mg/kg/injection) is reported as 120 % of control. For the same compound, the T/C (dose: 10.0 mg/kg/injection) was 108 % of control.
For `CC(=O)NC1=C(N2CC2)C(=O)C(NC(C)=O)=C(N2CC2)C1=O`, the T/C (dose: 0.25 mg/kg/injection) was 163 % of control, the T/C (dose: 0.5 mg/kg/injection) was 222 % of control and the T/C (dose: 1.0 mg/kg/injection) was 300 % of control. The T/C (dose: 2.0 mg/kg/injection) was 100 % of control, the T/C (dose: 250.0 micrograms/kg/injection) was 195 % of control and the T/C (dose: 500.0 micrograms/kg/injection) was 195 % of control. The T/C (dose: 1000.0 micrograms/kg/injection) was 300 % of control.
With `O=c1[nH]cc(F)c(=O)[nH]1` the T/C (dose: 5.0 mg/kg/injection) was 195 % of control, the T/C (dose: 10.0 mg/kg/injection) was 213 % of control and 227 % of control and the T/C (dose: 20.0 mg/kg/injection) was 181 % of control and 186 % of control.
For `O=c1cnn(C2OC(CO)C(O)C2O)c(=O)[nH]1` (stereo unspecified), the T/C (dose: 200.0 mg/kg/injection) was 104 % of control and 107 % of control, the T/C (dose: 400.0 mg/kg/injection) was 104 % of control and 107 % of control and the T/C (dose: 800.0 mg/kg/injection) was 107 % of control and 112 % of control.
`C[C@H]1C(=O)O[C@@H]2CCN3CC=C(COC(=O)[C@](C)(O)[C@@]1(C)O)[C@H]23` was tested, and the T/C (dose: 3.13 mg/kg/injection) was 100 % of control, the T/C (dose: 6.25 mg/kg/injection) was 94 % of control and 109 % of control and the T/C (dose: 12.5 mg/kg/injection) was 86 % of control and 118 % of control. For the same compound, the T/C (dose: 25.0 mg/kg/injection) was 108 % of control and 118 % of control.
For `c1ccc(CNc2ncnc3[nH]ncc23)cc1`, the T/C (dose: 8.0 mg/kg/injection) was 95 % of control and 103 % of control, the T/C (dose: 16.0 mg/kg/injection) was 92 % of control and 100 % of control and the T/C (dose: 32.0 mg/kg/injection) was 92 % of control and 100 % of control. The T/C (dose: 64.0 mg/kg/injection) was 95 % of control and 96 % of control.
With `C=CC(CN1CC1)OC(C)=O` (stereo unspecified) the T/C (dose: 2.0 mg/kg/injection) was 104 % of control and the T/C (dose: 8.0 mg/kg/injection) was 176 % of control.
`CCOC(=O)c1[nH]c2ccccc2c1CN(CCCl)CCCl` was tested, and the T/C (dose: 10.0 mg/kg/injection) was 116 % of control, the T/C (dose: 20.0 mg/kg/injection) was 170 % of control and the T/C (dose: 40.0 mg/kg/injection) was 150 % of control.
With `O=c1cn[nH]c(=O)[nH]1` the T/C (dose: 62.5 mg/kg/injection) was 114 % of control, the T/C (dose: 125.0 mg/kg/injection) was 90 % of control and 106 % of control and the T/C (dose: 250.0 mg/kg/injection) was 92 % of control and 107 % of control. For the same compound, the T/C (dose: 500.0 mg/kg/injection) was 96 % of control.
For `N#CCSc1ncnc2nc[nH]c12`, the T/C (dose: 15.0 mg/kg/injection) was 86 % of control and 113 % of control, the T/C (dose: 30.0 mg/kg/injection) was 118 % of control and 120 % of control and the T/C (dose: 60.0 mg/kg/injection) was 113 % of control. For the same compound, the T/C (dose: 120.0 mg/kg/injection) was 118 % of control.
`Nc1nc(SCc2ccccc2)c2[nH]cnc2n1` was tested, and the T/C (dose: 8.0 mg/kg/injection) was 112 % of control and 115 % of control, the T/C (dose: 16.0 mg/kg/injection) was 100 % of control and the T/C (dose: 32.0 mg/kg/injection) was 107 % of control and 120 % of control. For the same compound, the T/C (dose: 64.0 mg/kg/injection) was 103 % of control and 104 % of control.
In the case of `Nc1nc(F)nc2c1ncn2C1OC(CO)C(O)C1O` (stereo unspecified), the T/C (dose: 0.5 mg/kg/injection) is reported as 104 % of control, the T/C (dose: 1.0 mg/kg/injection) is reported as 104 % of control and 113 % of control and the T/C (dose: 2.0 mg/kg/injection) is reported as 100 % of control and 109 % of control. For the same compound, the T/C (dose: 4.0 mg/kg/injection) was 113 % of control and 118 % of control and the T/C (dose: 8.0 mg/kg/injection) was 86 % of control.
For `CCN(CC)CCNc1ccc(C)c2sc3ccccc3c(=O)c12`, the T/C (dose: 12.5 mg/kg/injection) was 116 % of control, the T/C (dose: 25.0 mg/kg/injection) was 100 % of control and 116 % of control and the T/C (dose: 50.0 mg/kg/injection) was 103 % of control. The T/C (dose: 100.0 mg/kg/injection) was 154 % of control.
For `CS(=O)(=O)OCC(O)C(O)C(O)C(O)COS(C)(=O)=O` (stereo unspecified), the T/C (dose: 25.0 mg/kg/injection) was 104 % of control, the T/C (dose: 50.0 mg/kg/injection) was 109 % of control and 113 % of control and the T/C (dose: 100.0 mg/kg/injection) was 118 % of control. For the same compound, the T/C (dose: 200.0 mg/kg/injection) was 118 % of control.
For `CN(C)c1ccc(/C=C/c2ccnc3ccccc23)cc1`, the T/C (dose: 5.0 mg/kg/injection) was 96 % of control and 112 % of control, the T/C (dose: 10.0 mg/kg/injection) was 112 % of control and the T/C (dose: 20.0 mg/kg/injection) was 112 % of control. The T/C (dose: 40.0 mg/kg/injection) was 100 % of control.
